Assays:
WT-PMM2 = target: T1, WT-PMM2 (Homo sapiens, UniProt O15305); assay: High-throughput differential scanning fluorimetry (DSF) screening, thermal denaturation; assay type: binding; conditions: 0.08 mg/mL of compound, 4% DMSO, vs DMSO control; read-out: protein Tm is increased (ΔTm)
T1 construct: His6 (N); made in house; host or cells: E. coli BL21 Star DE3
T1 sequence (O15305 1-246): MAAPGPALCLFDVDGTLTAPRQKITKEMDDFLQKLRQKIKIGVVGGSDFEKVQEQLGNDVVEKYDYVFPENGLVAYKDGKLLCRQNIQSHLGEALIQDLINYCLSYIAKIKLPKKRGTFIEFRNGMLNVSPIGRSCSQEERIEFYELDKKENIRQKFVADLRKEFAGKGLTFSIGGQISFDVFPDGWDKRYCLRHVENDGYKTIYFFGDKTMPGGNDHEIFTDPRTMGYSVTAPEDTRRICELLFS
Procedure: 10,000 molecular compounds from the MyriaScreen (Sigma-Aldrich) diversity collection were screened by determining the stabilization induced by the binding of different ligands (potential pharmacological chaperones) to the purified recombinant protein. The identification of ligands that stabilize WT-PMM2 thermally, was done by monitoring the thermal denaturation. The screening was performed by monitoring a shift in the fluorescence intensity at 610 nm using the LightCycler A480 (Roche).
PMM2 proteins were expressed in E.coli (BL21 Star™DE3 One Shot® Invitrogen). […]
Protein purification was performed using the ÄKTA Prime System (GE Healthcare, Little Chalfont, UK) at 4°C. […] The pure protein concentration was estimated by measuring the absorbance at 280 nm in a Nanodrop spectrophotometer (Thermo Scientific, Waltham, MA, USA) using the theoretical molar extinction coefficient estimated from the amino acid composition of HisPMM2 (23755 M^-1 cm^-1).
10,000 compounds of molecular weight ranging from 220 to 547 Da from the MyriaScreen diversity collection, dissolved in DMSO (Sigma Aldrich, St. Louis, MO, USA) to a final concentration of 2 mg/mL, were screened by DSF for identification of ligands that stabilize WT-PMM2 thermally. […] The experimental unfolding curves were then smoothed, normalized, and analyzed using in-house software. […]

[1] = test system: WT-PMM2 and mutants p.Asp65Tyr, p.Pro113Leu, p.Arg162Trp and p.Thr237Met; assay: Degradation time course (half-life) in prokaryotic transcription-translation-coupled system; assay type: biochemical, human; conditions: mutant proteins with compound at the tested concentrations
Procedure: In order to deepen in the effect of Compound A on the PMM2 stability, degradation time courses were analyzed on WT protein and folding mutants with residual activity, p.Asp65Tyr, p.Arg162Trp and p.Thr237Met in presence of the compound. Additionally, we included in this assay the dimeric mutant p.Pro113Leu in order to study the effect of the compound on a mutant of this type.
Dimeric PMM2 used for thermal stability analysis was produced by the RTS 100 E. coli HY Kit transcription-translation-coupled system (5 PRIME, Hilden, Germany), following the manufacturer's recommendations. To produce PMM2 proteins, the reaction mix provided by the kit, together with 500 ng of the corresponding expression vector and 1 µl of the compound for reaching a final concentration of 40µM or 80µM or 1µl of DMSO. Reactions were incubated for 30 min at 30°C. The reaction was then stopped by adding 1 µl of DNase (1 mg/mL) and 1 µl of RNase (1 mg/mL). It was then further incubated at 37°C and 1.5 µl aliquots removed at different times. The compound was therefore present during the folding process. Proteins were immunodetected by Western blot and relative amounts of protein were determined by densitometry for the half-life determination.

ΔTm at 80 µg/mL (WT-PMM2): 1.1 °C
SMILES: O=C(Nc1cccc(Cl)c1)N(c1ccccn1)c1ccccn1 [Compound A, 3-(3-Chloro-phenyl)-1,1-di-pyridin-2-yl-urea]
half-life of the mutant proteins compared with WT-PMM2 [1]: longer half-life than that recorded for the WT-PMM2

— EP3275863A1, “COMPOUNDS FOR TREATING CONGENITAL DISORDERS OF GLYCOSYLATION” (Universidad Autónoma de Madrid, priority 2016, dated 2018)
